Legend:
Type in all cases: cell-based, rat
[1] = tested on: cortical cells; experiment: BrdU proliferation ELISA assay; conditions: 150 μg/ml, 24 h, FIG. 5
Protocol: (§1) BrdU-Incorporation Assay: For measuring the newly synthesized cells during proliferation of treated and un-treated cultured hippocampal, cortical and co-cultured cells, the BrdU (Calbiochem®, CA, USA) cell proliferation ELISA kit was used. This immunoassay is based on the measurement of BrdU (5-bromo-2′-deoxiurydine) incorporation into DNA during division phase of the proliferating cells. For BrdU proliferation assay, primary cultured cells were grown in 75 cm flasks and when cells were confluent they were trypsinized and re-plated with a cell density of 1×10^5 cells/mL in 96-well tissue culture grade flat bottom ELISA plates, i.e., (10,000 cells/well) in DMEM medium (high glucose). The plates were incubated overnight at 37° C. in 5% CO2. Next day, media was changed and adherent cells were treated with different doses of isoxylitones, i.e., 25, 50, 75, 100, and 150 μg/mL and incubated for 24 hrs in a humidified chamber at 37° C. and 5% CO2.
(§2) The following day, the cells were first labeled by the 20 μL of BrdU (1:2000) in fresh medium and kept in a humidified atmosphere at 37° C. for 24 hrs. During 20-24 hrs of labeling period, BrdU is incorporated in place of thymidine into the DNA of the proliferating cells. After removing the labeling medium by tapping off the plate, cells were fixed, and DNA denatured in one step by adding 200 μL of fixative or Denat solution (provided in the kit) in each well following incubation for 30 minutes at room temperature.
(§3) The fixation and denaturation of DNA is required to expose the incorporated BrdU for detection by the antibody. The fixative or Denat solution was removed by flicking off and tapping on paper towel. […] The immune complexes were detected by the subsequent substrate reaction and the absorbance was measured on spectrophotometer plate reader at dual wave lengths of 450-595 nm within 30 minutes of adding the stop solution. The data was analyzed using SPSS and graphs were made on Excel.

[2] = tested on: hippocampal cells; experiment: BrdU proliferation ELISA assay; conditions: 24 h, FIG. 5
Protocol: as §1, §2, §3

[3] = tested on: hypoxic cortical cells; experiment: In-vitro model of hypoxic pre-conditioning; conditions: 2 h hypoxia then treatment at various concentrations, vs positive control hypoxic cells, FIG. 7
[4] = tested on: Calretinin (CR); experiment: Immunocytochemical analysis of primary cultured and cocultured cells; conditions: vs control
Protocol: (§4) Immuncytochemical analysis was performed for differentiation studies of primary cultures of cortex, hippocampus, and co-cultures (CoCul) in absence of growth factors and serum free medium.
(§5) The cultured cells of cortex, hippocampus, and co-cultured cells in the presence of serum free medium were plated in chamber slides at the density of 20,000 cells/mL and treated with a proliferative dose of isoxylitones, i.e., 150 μg/ml for 24 hrs at 37° C. and 5% CO2 to let the cells adhere on the bottom surface of the slide. Following incubation, the media was refreshed and the cells were immunolabelled as mentioned in table #2.1.
(§6) For immunostaining, the media was removed; cells were washed gently with 1 mL of 1×PBS. After removing 1×PBS, 4% formaldehyde was added and the slides were incubated for 20 minutes at room temperature to fix the cells. The fixative was aspirated followed by a three times rinse with 1 mL of 1×PBS. After washing, the blocking buffer (BSA having 3% normal goat serum, 0.2% tween-20 and 0.3% of Triton X-100 in 10×PBS) was added and the slides were kept at room temperature for an hour. Then, the cells were washed gently three times with 1×PBS on an orbital shaker and 300 μL of primary antibodies (dilution mentioned in table #2.1) were added to each slide and incubated overnight at 4° C. Following incubation, the cells were washed gently in PBS three times (5 minutes each wash) on an orbital shaker. Next secondary antibody (Table #2.1) in 3% normal serum or BSA was added to their respective chamber and incubated for 1 hour at room temperature in dark. Following incubation, the slides were washed with 1×PBS.
(§7) Diluted Dapi (1:1000) was added into each slide to counter stain the nucleus. After rinsing twice with distilled water, images were captured using the Nikon 90i with fluorescence microscopes (Nikon. Tokyo, Japan) equipped with Nuance Software version 3.1 (Caliper Life Sciences. Hopkinton, Mass.). The magnification used was 20×.
(§8) For quantification studies, ImageJ software (National Institutes of Health, USA) was used to digitalized the images. This software provides multiple imaging system data comparisons taking densitometry in consideration. Briefly, 5 different regions were randomly selected and the fluorescence intensity was quantified in cells and the background intensity of each image was subtracted from it, the residual particles were measured to represent expression of relevant protein. Cells or fields were counted and percentage intensity of protein expression was measured and means percentage intensity was calculated. Data from three individual experiments was obtained and expressed as means±SEM.

[5] = tested on: GFAP; experiment: as above; conditions: 24 h
Protocol: as §4, §5, §6, §7, §8

[6] = tested on: Neuro D1; experiment: as above
Protocol: as §4, §5, §6, §7, §8

[7] = tested on: nestin; experiment: as above; conditions: 24 h
Protocol: as §4, §5, §6, §7, §8

[8] = tested on: neurogenin; experiment: as above
Protocol: as §4, §5, §6, §7, §8

[9] = tested on: tubulin; experiment: as above
Protocol: as §4, §5, §6, §7, §8

## CC(=O)C=C1C=C(C)CC(C)(C)C1 (mixture of isomers) [isoxylitones]
[1]
  BrdU positive cells: slightly increased BrdU positive cells
[2]; 100 μg/ml
  BrdU positive cells: significantly increased BrdU positive cells
[2]; 150 μg/ml
  BrdU positive cells: significantly increased BrdU positive cells
[3]
  recovery of hypoxic cells (phase-contrast morphology): Recovery of hypoxic cells clearly observed
[4]; (A) cortical and (B) CoCul-CTX cells, FIG. 14
  Calretinin (CR) fluorescent intensity: prominent increase in the fluorescent intensity of calretinin
[4]; (A) hippocampal and (B) CoCul-HP cells, FIG. 15
  CR expression (immunoreactivity): significant increase in CR expression
[5]; (A) cortical and (B) CoCul-CTX cells, vs vehicle control, FIG. 10
  GFAP expression (immunofluorescence): prominent increase of GFAP expression
[5]; (A) hippocampal and (B) CoCul-HP cells, 150 μg/ml, vs control, FIG. 11
  GFAP immunochemistry, intensity of images: No significant difference in intensity
[6]; (A) cortical and (B) CoCul-CTX cells, 150 μg/ml, 24 h, vs control, FIG. 16
  Neuro D1 protein expression: significant upregulation
[6]; (A) hippocampal and (B) CoCul-HP cells, FIG. 17
  Neuro D1 immunofluorescence intensity: significant up-regulation in immunofluorescence of NeuroD1 intensity
[7]; (A) CTX and (B) CoCul-CTX cells, vs control, FIG. 9
  nestin expression (immunofluorescence): no significant difference
[7]; (A) hippocampal and (B) CoCul-HP cells, 150 μg/ml, vs untreated control, FIG. 8
  nestin expression (immunofluorescence): up-regulation of nestin protein expression
[8]; (A) cortical and (B) CoCul-CTX cells, FIG. 18
  neurogenin expression (immunostaining): prominent neurogenin expression
[8]; (A) hippocampal and (B) CoCul-HP cells, 24 h, vs control P<0.001, FIG. 19
  neurogenin expression (immunostaining): elevated neurogenin expression
[9]; (A) cortical and (B) CoCul-CTX cells, P<0.01, FIG. 12
  tubulin expression (immunofluorescence): significant upregulation of tubulin
[9]; (A) hippocampal and (B) CoCul-HP cells, 150 μg/ml, 24 h, vs control, FIG. 13
  tubulin expression (immunofluorescence): significant upregulation
